# Laboratory results published in the supplement of paper PMC11208160.
# Assay: recombinant barcode read abundance after kanamycin selection (control-corrected) (log10(CPM+1)); higher = more efficient recombination; sequences stand for … in AGTGCAGAGAAAATCGGCCAGTTTTCTCTGCCTGCAGTCCGCATGCCGT…AGATTTATGCAGCGGACTGCCTTTCTCCCAAAGTGATAAACCGGACAGTATCATGGACCGGTTTTCCCGGTAATCCGTATTTGCAAGGTTGGTTTCACT; site = the 11-nt target
# Outline: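 A vector carrying a T7-inducible recombinase and the last 73 bp of the bridge RNA received, by Gibson cloning, oligos encoding a promoter, target, barcode and the first 104 bridge RNA bases under J23119. The pooled constructs entered E. coli together with a donor plasmid by electroporation. Selection used chloramphenicol/ampicillin/kanamycin with 0.1 mM IPTG, with chloramphenicol/ampicillin LB agar as the control, each in two replicates. Recombination efficiency is the averaged, control-corrected counts-per-million of barcodes at recombinant junctions, reported as log10(CPM+1).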
# 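Note: IS621 recombinase and bridge RNA in Escherichia coli cells.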
row,Sequence,recombinant barcode read abundance (log10)
1,GGTAGATCTTGGGTTCTAACCTGTTGCTT (site GGTAGGCCTAA),0.0553
2,GGTCAAACTTGGGTTCTAACCTGTTGCCT (site GGTCAAACTAG),0.492
3,GGTCAAACTTGGGTTCTAACCTGTTGCCT (site GGTCCAACTAG),0.0951
4,GGTCAAACTTGGGTTCTAACCTGTTGCCT (site GGTCGAACTAG),0.109
5,GGTCAAACTTGGGTTCTAACCTGTTGCCT (site GGTCTAACTAG),0.0309
6,GGTCAACCTTGGGTTCTAACCTGTTGCGG (site GGTCAACCTCC),2.5
7,GGTCAACCTTGGGTTCTAACCTGTTGCGG (site TACTCTTCTAG),0.113
8,GGTCATACTTGGGTTCTAACCTGTTGCCT (site GGTCATACTAG),0.455
9,GGTCATACTTGGGTTCTAACCTGTTGCCT (site GGTCATCCTAG),0.0309
10,GGTCATACTTGGGTTCTAACCTGTTGCCT (site GGTCATGCTAG),0.074
11,GGTCATACTTGGGTTCTAACCTGTTGCCT (site GGTCATTCTAG),0.246
12,GGTCCTCCTTGGGTTCTAACCTGTTGCGA (site GGTCCTCCTTC),0.847
13,GGTCCTCCTTGGGTTCTAACCTGTTGCGA (site TCCTAGTCTCT),0.229
14,GGTCGCGCTTGGGTTCTAACCTGTTGCCT (site GGTCGAGCTAG),0.113
15,GGTCGCGCTTGGGTTCTAACCTGTTGCCT (site GGTCGCGCTAG),0.535
16,GGTCGCGCTTGGGTTCTAACCTGTTGCCT (site GGTCGGGCTAG),0.832
17,GGTCGCGCTTGGGTTCTAACCTGTTGCCT (site GGTCGTGCTAG),0.0211
18,GGTGACCCTTGGGTTCTAACCTGTTGCAT (site GGTGACCCTAT),2.75
19,GGTGACCCTTGGGTTCTAACCTGTTGCAT (site TCGTGAGCTCA),0.97
20,GGTGACCCTTGGGTTCTAACCTGTTGCGG (site GGTAACCCTCC),2.05
21,GGTGACCCTTGGGTTCTAACCTGTTGCGG (site GGTCACCCTCC),0.224
22,GGTGACCCTTGGGTTCTAACCTGTTGCGG (site GGTGACCCTCC),2.73

row,Sequence,recombinant barcode read abundance (log10)
1,GGTGACCCTTGGGTTCTAACCTGTTGCGG (site GGTTACCCTCC),0.33
2,GGTGCTCCTTGGGTTCTAACCTGTTGCTT (site ATTGCTCCTAA),0.135
3,GGTGCTCCTTGGGTTCTAACCTGTTGCTT (site GGTGCTCCTAA),0.0711
4,GGTGGGTCTTGGGTTCTAACCTGTTGCTT (site GGTGGGTCTAA),1.9
5,GGTGGGTCTTGGGTTCTAACCTGTTGCTT (site GGTGGGTCTAC),0.663
6,GGTGGGTCTTGGGTTCTAACCTGTTGCTT (site GGTGGGTCTAG),0.929
7,GGTGGGTCTTGGGTTCTAACCTGTTGCTT (site GGTGGGTCTAT),1.69
8,GGTTAGCCTTGGGTTCTAACCTGTTGCCT (site GGTTAGCCTAG),0.579
9,GGTTAGCCTTGGGTTCTAACCTGTTGCCT (site TGTTAGCCTTG),0.0783
10,GGTTATCCTTGGGTTCTAACCTGTTGCGG (site GGTTATCCTCC),1.17
11,GGTTATCCTTGGGTTCTAACCTGTTGCGG (site TTACGCTCTTA),0.0896
12,GGTTCACCTTGGGTTCTAACCTGTTGCAG (site GGTTCACCTCT),1.05
13,GGTTCACCTTGGGTTCTAACCTGTTGCAG (site GGTTGACCTAT),0.0489
14,GGTTGAACTTGGGTTCTAACCTGTTGCAT (site GCTTGAACTAA),0.128
15,GGTTGAACTTGGGTTCTAACCTGTTGCAT (site GGTTGAACTAT),0.0521
16,GGTTGCACTTGGGTTCTAACCTGTTGCCT (site AGTTGCTCTAG),0.189
17,GGTTGCACTTGGGTTCTAACCTGTTGCCT (site GGTTGCACTAG),0.4
18,GTAAACTCTTGGGTTCTAACCTGTTGCCT (site GTAAACTCTAG),1.98
19,GTAAACTCTTGGGTTCTAACCTGTTGCCT (site GTCAACTCTAG),0.0684
20,GTAAACTCTTGGGTTCTAACCTGTTGCCT (site GTGAACTCTAG),0.0821
21,GTAAACTCTTGGGTTCTAACCTGTTGCCT (site GTTAACTCTAG),0.427
22,GTAAAGTCTTGGGTTCTAACCTGTTGCCA (site CTAAAGTCTTG),0.0579

row,Sequence,recombinant barcode read abundance (log10)
1,GTAAAGTCTTGGGTTCTAACCTGTTGCCA (site GTAAAGTCTTG),0.276
2,GTAAATCCTTGGGTTCTAACCTGTTGCCT (site ATAAATCCTAG),0.141
3,GTAAATCCTTGGGTTCTAACCTGTTGCCT (site CTAAATCCTAG),0.222
4,GTAAATCCTTGGGTTCTAACCTGTTGCCT (site GTAAATCCTAG),1.01
5,GTAAATCCTTGGGTTCTAACCTGTTGCCT (site TTAAATCCTAG),0.132
6,GTAAATGCTTGGGTTCTAACCTGTTGCCT (site GTAAATGCTAG),1.36
7,GTAAATGCTTGGGTTCTAACCTGTTGCCT (site GTAACTGCTAG),0.0397
8,GTAAATGCTTGGGTTCTAACCTGTTGCCT (site GTAAGTGCTAG),0.0927
9,GTAAATGCTTGGGTTCTAACCTGTTGCCT (site GTAATTGCTAG),0.0782
10,GTAACCGCTTGGGTTCTAACCTGTTGCCT (site GTAACCGCTAG),1.64
11,GTAACCGCTTGGGTTCTAACCTGTTGCCT (site GTCACCGCTAG),0.228
12,GTAACCGCTTGGGTTCTAACCTGTTGCCT (site GTGACCGCTAG),0.115
13,GTAACCGCTTGGGTTCTAACCTGTTGCCT (site GTTACCGCTAG),0.432
14,GTAACCTCTTGGGTTCTAACCTGTTGCCA (site GTAACCTCTAG),0.904
15,GTAACCTCTTGGGTTCTAACCTGTTGCCA (site GTAACCTCTCG),0
16,GTAACCTCTTGGGTTCTAACCTGTTGCCA (site GTAACCTCTGG),0.0508
17,GTAACCTCTTGGGTTCTAACCTGTTGCCA (site GTAACCTCTTG),0.983
18,GTAACCTCTTGGGTTCTAACCTGTTGCCG (site GTAACCTCTAG),0.861
19,GTAACCTCTTGGGTTCTAACCTGTTGCCG (site GTAACCTCTCG),1.48
20,GTAACCTCTTGGGTTCTAACCTGTTGCCG (site GTAACCTCTGG),0.0296
21,GTAACCTCTTGGGTTCTAACCTGTTGCCG (site GTAACCTCTTG),0.0357
22,GTAAGATCTTGGGTTCTAACCTGTTGCAC (site AGGCCCGCTCC),0.0896

row,Sequence,recombinant barcode read abundance (log10)
1,GTAAGATCTTGGGTTCTAACCTGTTGCAC (site GTAAGATCTGT),2.12
2,GTAAGTACTTGGGTTCTAACCTGTTGCTT (site GTAAGAACTAA),0.169
3,GTAAGTACTTGGGTTCTAACCTGTTGCTT (site GTAAGCACTAA),0.233
4,GTAAGTACTTGGGTTCTAACCTGTTGCTT (site GTAAGGACTAA),0.159
5,GTAAGTACTTGGGTTCTAACCTGTTGCTT (site GTAAGTACTAA),0.221
6,GTAAGTCCTTGGGTTCTAACCTGTTGCGA (site GTAAGTCCTTC),2.14
7,GTAAGTCCTTGGGTTCTAACCTGTTGCGA (site GTGAGTCCTCC),0.0113
8,GTAAGTGCTTGGGTTCTAACCTGTTGCCT (site GTAAATGCTAG),0.0588
9,GTAAGTGCTTGGGTTCTAACCTGTTGCCT (site GTAACTGCTAG),0.0692
10,GTAAGTGCTTGGGTTCTAACCTGTTGCCT (site GTAAGTGCTAG),1.28
11,GTAAGTGCTTGGGTTCTAACCTGTTGCCT (site GTAATTGCTAG),0.187
12,GTAATGACTTGGGTTCTAACCTGTTGCCT (site GAAATGACTAG),0.403
13,GTAATGACTTGGGTTCTAACCTGTTGCCT (site GCAATGACTAG),0.194
14,GTAATGACTTGGGTTCTAACCTGTTGCCT (site GGAATGACTAG),0.105
15,GTAATGACTTGGGTTCTAACCTGTTGCCT (site GTAATGACTAG),1.6
16,GTAATGTCTTGGGTTCTAACCTGTTGCCT (site GAAATGTCTAG),0.284
17,GTAATGTCTTGGGTTCTAACCTGTTGCCT (site GCAATGTCTAG),0.289
18,GTAATGTCTTGGGTTCTAACCTGTTGCCT (site GGAATGTCTAG),0.112
19,GTAATGTCTTGGGTTCTAACCTGTTGCCT (site GTAATGTCTAG),2.04
20,GTACAATCTTGGGTTCTAACCTGTTGCCT (site ATACAATCTAG),0.947
